Patent publication US6620828B2, “Thiazole compounds and pharmaceutical compositions for inhibiting protein kinases and methods for their use” (Agouron Pharmaceuticals, Inc., priority 1999, dated 2003)
Values joined by “and” are separate entries in the source; they are usually repeats but may differ in a detail not shown here. Identical values can stand only once.

Tests used:
CHK1 = biological target: T1, CHK1 (Homo sapiens, UniProt O14757); assay: CHK1 high-throughput screening; assay type: biochemical; conditions: for % inhibition @ 20 μM: Table 4, repeated entries per example; for inhibition at 20 µM: read-out: % inhibition @ 20 μM, Table 4, repeated entries per example
T1 sequence (O14757 1-476): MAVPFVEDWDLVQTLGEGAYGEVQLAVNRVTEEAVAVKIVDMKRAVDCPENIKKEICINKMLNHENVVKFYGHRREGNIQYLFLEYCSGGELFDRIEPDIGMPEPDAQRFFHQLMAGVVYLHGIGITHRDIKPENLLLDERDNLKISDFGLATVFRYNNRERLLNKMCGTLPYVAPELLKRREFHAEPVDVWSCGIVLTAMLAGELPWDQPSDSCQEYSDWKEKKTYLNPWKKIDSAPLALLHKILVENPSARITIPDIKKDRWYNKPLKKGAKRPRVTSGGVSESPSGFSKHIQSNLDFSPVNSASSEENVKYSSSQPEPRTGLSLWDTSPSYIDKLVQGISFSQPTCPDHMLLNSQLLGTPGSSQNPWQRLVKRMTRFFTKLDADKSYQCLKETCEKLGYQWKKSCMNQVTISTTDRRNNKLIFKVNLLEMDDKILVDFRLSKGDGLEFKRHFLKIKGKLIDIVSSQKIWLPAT

CDK4/Cyclin D3 complex = biological target: T2, CDK4/Cyclin D3 complex (Homo sapiens, UniProt P11802); assay: CDK4/Cyclin D assay; assay type: biochemical; conditions: Table 2; for inhibition at 100 µM: at 100 (printed 100 or 100 μM)
T2 construct: made in house; host or cells: insect cells co-infected with baculovirus vectors
T2 sequence (P11802 whole entry): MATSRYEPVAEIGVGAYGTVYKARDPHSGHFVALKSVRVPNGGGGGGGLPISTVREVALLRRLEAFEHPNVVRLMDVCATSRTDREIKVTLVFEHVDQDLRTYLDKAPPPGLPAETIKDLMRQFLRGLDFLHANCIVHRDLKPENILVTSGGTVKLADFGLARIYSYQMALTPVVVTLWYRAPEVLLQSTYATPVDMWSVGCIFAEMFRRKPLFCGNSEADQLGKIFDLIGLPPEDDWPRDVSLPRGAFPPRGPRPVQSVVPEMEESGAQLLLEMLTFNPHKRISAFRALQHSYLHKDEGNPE
T2 sequence (P30281 whole entry partner): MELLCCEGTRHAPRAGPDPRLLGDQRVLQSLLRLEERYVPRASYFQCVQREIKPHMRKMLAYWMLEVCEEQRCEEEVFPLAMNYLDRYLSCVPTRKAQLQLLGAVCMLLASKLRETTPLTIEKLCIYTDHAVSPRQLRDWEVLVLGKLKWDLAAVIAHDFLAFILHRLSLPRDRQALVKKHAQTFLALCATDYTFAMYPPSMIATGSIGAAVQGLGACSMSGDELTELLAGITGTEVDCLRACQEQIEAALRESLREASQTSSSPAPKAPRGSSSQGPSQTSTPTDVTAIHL
Procedure, shortened: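 Insect-cell-expressed CDK4/cyclin D3 (50 nM) phosphorylating His-tagged Rb fragment (residues 386-928) with 25 μM [^32P]ATP in HEPES pH 7.4, MgCl2, 2% DMSO; 20 min at 30 °C, EDTA stop. Filter-captured 32P by phosphorimager; apparent Ki from competitive or tight-binding inhibition fits.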

CDK2/Cyclin A complex = CDK2/Cyclin A complex (Homo sapiens, UniProt P24941); assay: CDK2/Cyclin A assay; assay type: biochemical; conditions: Table 2; for CDK2 % inhibition @ 100: at 100 (printed 100 or 100 μM)
Procedure, shortened: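 Radiometric assay: 150 nM CDK2/cyclin A (insect-cell CDK2, truncated cyclin A) phosphorylates His-tagged Rb fragment (residues 386-928) with 25 μM ATP plus [32P]ATP, pH 7.4 HEPES, 2% DMSO, 30 °C for 20 min. Filter-captured product counted by phosphorimager; apparent Ki from competitive or tight-binding inhibition fits.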

FAKcd409 = biological target: T3, FAKcd409 (Homo sapiens, UniProt Q05397, P410T); assay: FAK HTS assay; assay type: biochemical; conditions: 10 uM compound, HTS Delphia assay
T3 construct: comprises residues methionine 409 to glutamate 689; made in house; host or cells: baculovirus vector expression system
T3 sequence (Q05397 409-689 P410T): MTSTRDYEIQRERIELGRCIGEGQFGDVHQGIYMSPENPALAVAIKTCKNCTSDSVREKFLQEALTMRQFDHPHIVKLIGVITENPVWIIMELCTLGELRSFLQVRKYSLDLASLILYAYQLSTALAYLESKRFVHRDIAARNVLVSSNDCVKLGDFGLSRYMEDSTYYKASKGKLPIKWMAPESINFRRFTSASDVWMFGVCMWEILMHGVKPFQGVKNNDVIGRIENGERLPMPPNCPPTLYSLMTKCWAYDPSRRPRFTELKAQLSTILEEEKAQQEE

[1] = biological target: T4, phosphorylated VEGF-R2Δ50 (Homo sapiens, UniProt P35968, DEL940-989/E990V); assay: VEGF-R2 ELISA assay; assay type: biochemical; conditions: Table 2; * determined with ELISA assay; read-out: FLVK-P Ki
T4 construct: VEGF-R2Δ50 contains residues 806-939 and 990-1171; made in house; host or cells: baculovirus/insect cells
T4 sequence (P35968 with tags, fused parts or gaps DEL940-989/E990V limits assumed): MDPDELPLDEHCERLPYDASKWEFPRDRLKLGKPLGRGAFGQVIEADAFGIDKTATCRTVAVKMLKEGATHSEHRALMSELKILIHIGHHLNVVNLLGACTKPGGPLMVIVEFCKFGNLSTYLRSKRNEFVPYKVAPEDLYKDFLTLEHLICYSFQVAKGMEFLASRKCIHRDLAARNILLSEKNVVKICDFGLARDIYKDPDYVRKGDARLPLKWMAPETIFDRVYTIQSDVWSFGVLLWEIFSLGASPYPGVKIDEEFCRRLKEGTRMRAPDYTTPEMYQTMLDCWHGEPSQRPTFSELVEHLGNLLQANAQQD
Procedure, shortened: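 Pre-autophosphorylated human VEGF-R2Δ50 (residues 806-939/990-1171, E990V; baculovirus) at 0.8 nM was run with 2 μM biotin-gastrin(1-17), 20 μM ATP, 26 mM MgCl2, 2 mM MnCl2, pH 7.5 Hepes. Phosphopeptide was captured on streptavidin and detected by anti-pTyr-HRP/ABTS at 405 nm; Ki came from activity at varying compound concentrations.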

FL-CHK1 = biological target: T5, FL-CHK1 (Homo sapiens, UniProt O14757); assay: CHK1 assay; assay type: biochemical; conditions: Table 2; read-out: CHK-1 Ki
T5 construct: C-terminally His-tagged full-length human CHK1 (FL-CHK1); 6xHis (C); made in house; host or cells: baculovirus/insect cells
T5 sequence (O14757 1-476): T1 sequence (O14757 1-476)
Procedure, shortened: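 Full-length human CHK1 with C-terminal 6×His tag, made in baculovirus/insect cells, 10 nM, phosphorylating 0.125 mM Syntide-2 with 0.15 mM ATP in 50 mM Tris pH 7.5, 25 mM MgCl2, 400 mM NaCl. PK/LDH-coupled NADH oxidation read at 340 nm. Ki from initial rates over varied compound concentrations.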

[2] = biological target: T6, phosphorylated VEGF-R2Δ50 (FLVK-P) (Homo sapiens, UniProt P35968, DEL940-989/E990V); assay: VEGF-R2 coupled spectrophotometric (FLVK-P) assay; assay type: biochemical; conditions: for Ki: spectrophotometric assay
T6 construct: VEGF-R2Δ50 contains residues 806-939 and 990-1171; made in house; host or cells: baculovirus/insect cells
T6 sequence (P35968 with tags, fused parts or gaps DEL940-989/E990V limits assumed): as above
Procedure, shortened: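 Baculovirus-expressed human VEGF-R2Δ50 (residues 806-939/990-1171, E990V) was autophosphorylated with 3 mM ATP, 40 mM MgCl2 for 2 h at 4° C. ADP formation was coupled via PK/LDH to NADH oxidation, read at 340 nm, with 5.1 mM poly(E4Y1), 1 mM ATP, 25 mM MgCl2, Hepes pH 7.5. Ki came from activity across compound concentrations.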

[3] = system: human umbilical vein endothelial cells (HUVEC); assay: HUVEC proliferation assay; assay type: cell-based; conditions: Homo sapiens, HUVEC, Table 1
Procedure, shortened: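 Exponentially growing HUVEC were serum-starved 24 h (F12K + 1% FBS), pre-treated 1 h with compound (0.1% DMSO final), then stimulated with 6 ng/ml VEGF. Proliferation was read 72 h later by MTT reduction (A595). IC50 came from seven 0.5-log concentrations in triplicate; screens gave % inhibition relative to VEGF-only and starved wells.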

[4] = system: lung cancer cells (line MV522); assay: Cancer cell proliferation (MV522) assay; assay type: cell-based; conditions: MV522, Table 1

Compound	% inhibition @ 20 μM (CHK1)	melting point	Ki (CDK2/Cyclin A complex) [nM]	% inhibition of FAK (FAKcd409; 10 µM)	inhibition at 20 µM (CHK1) [%]	also measured
COc1ccccc1-c1csc(-c2sc(Nc3ccc(S(N)(=O)=O)cc3)nc2N)n1 [A(3), 4-[4′-Amino-4-(2-methoxy-phenyl)-[2,5′]bithiazolyl-2′-ylamino]-benzenesulfonamide]	2.8% and −1.9%	231 to 235 °C (dec.)	2500			Ki (CDK4/Cyclin D3 complex): 8400 nM; % inhibition of FAK (FAKcd409): −9%; Ki [1]: 64000 nM
COc1cc(Nc2nc(N)c(-c3nc(-c4ccc(F)cc4F)cs3)s2)cc(OC)c1OC [A(9), 4-(2,4-Difluoro-phenyl)-N^2′-(3,4,5-trimethoxy-phenyl)-[2,5′]bithiazolyl-2′,4′-diamine]		180 to 183 °C (dec.)		−6% and −5% and 4%		inhibition at 100 µM (CDK4/Cyclin D3 complex): < 0%; CDK2 % inhibition @ 100 (CDK2/Cyclin A complex): 29% @; Ki [1]: 1900 nM
COc1cc(Nc2nc(N)c(-c3nc(-c4cc(O)ccc4O)cs3)s2)cc(OC)c1OC [A(25), 2-(4′-Amino-2′-(3,4,5-trimethoxy-phenylamino)-[2,5′]bithiazolyl-4-yl]-benzene-1,4-diol]		208 to 212 °C (dec.)		60% and 47% and 57% and 90% and 88%	19.7	Ki (FL-CHK1): 290 nM; Ki [1]: 100 nM
COc1cc(Nc2nc(N)c(-c3nc(-c4cccc(C(=O)Nc5ccc6nc(C)ccc6c5)c4)cs3)s2)cc(OC)c1OC [A(35), 3-[4′-Amino-2′-(3,4,5-trimethoxy-phenylamino)-[2,5′]bithiazolyl-4-yl]-N-(2-methyl-quinolin-6-yl)-benzamide]				−5% and −9% and −10%		Ki [1]: 390000 nM
Cc1ccc(Nc2nc(N)c(-c3nc(-c4cccc(NC(=O)OCc5ccccc5)c4)cs3)s2)cc1 [A(36), [3-(4′-Amino-2′-p-tolylamino-[2,5′]bithiazolyl-4-yl)-phenyl]-carbamic acid benzyl ester]				−6% and −11% and −15%	2.8	FLVK-P % inhibition @ 0.05 ([2]; Table 1, at 0.05, concentration unit not printed (head nM)): 36% @
CCOC(=O)c1cccc(Nc2nc(N)c(-c3nc(-c4cccc(NC(=O)c5ccccc5)c4)cs3)s2)c1 [A(40), 3-[4′-Amino-4-(3-benzoylaminophenyl)-[2,5′]bithiazolyl-2′-ylamino]-benzoic acid ethyl ester]					1	inhibition at 10 µM (FAKcd409): -6%
Cc1cccc(Nc2nc(N)c(-c3nc(-c4cccc(NC(=O)c5ccccc5)c4)cs3)s2)c1 [A(44), [3-(4′-Amino-2′-m-tolylamino-[2,5′]bithiazolyl-4-yl)-phenyl]-benzamide]				−15% and −5% and −10%	-7.1	
Nc1nc(Nc2ccc3c(c2)OCCO3)sc1-c1nc(-c2cccc(NC(=O)c3ccccc3)c2)cs1 [A(45), N-{3-[4′-Amino-2′-(2,3-dihydro-benzo[1,4]dioxin-6-ylamino)-[2,5′]bithiazolyl-4-yl]-phenyl}-benzamide]				−13% and −4% and −6%	-1	Ki ([2]; Table 1): 9.7 nM
CC(=O)Nc1cc(Nc2nc(N)c(-c3nc(-c4cccc(NC(=O)c5ccccc5)c4)cs3)s2)ccc1C [A(48), N-{3-[2′-(3-Acetylamino-4-methyl-phenylamino)-4′-amino-[2,5′]bithiazolyl-4-yl]-phenyl}-benzamide]				−2% and −8%	1.3	IC50 [3]: 350 nM; IC50 [4]: > 10000 nM; Ki ([2]; Table 1): 3.1 nM
Nc1nc(Nc2ccc3c(=O)[nH][nH]c(=O)c3c2)sc1-c1nc(-c2cccc(NC(=O)c3ccccc3)c2)cs1 [A(49), N-{3-[4′-Amino-2′-(1,4-dioxo-1,2,3,4-tetrahydro-phthalazin-6-ylamino)-[2,5′]bithiazolyl-4-yl]-phenyl}-benzamide]				−13% and −7% and −10%	14.1	
Nc1nc(Nc2cccnc2)sc1-c1nc(-c2cccc(NC(=O)c3ccccc3)c2)cs1 [A(53), 3-(4′-Amino-4-(3-benzamidophenyl)-[2,5′]bithiazolyl-2′-ylamino)-pyridine]				−10% and −8%	4	IC50 [3]: 370 nM; IC50 [4]: > 10000 nM; Ki ([2]; Table 1): 24 nM
C=CCOc1cc(O)cc(-c2csc(-c3sc(Nc4ccc(S(N)(=O)=O)cc4)nc3N)n2)c1 [A(62), 4-[4-(3-Allyloxy-5-hydroxyphenyl)-4′-amino-[2,5′]bithiazolyl-2′-ylamino]-benzenesulfonamide]	12.2%	200 to 202 °C	530	6%	7.4	Ki (CDK4/Cyclin D3 complex): 4400 nM; inhibition at 10 µM (FAKcd409): 7%
COc1ccc(/C=C/c2csc(-c3sc(Nc4ccc(S(N)(=O)=O)cc4)nc3N)n2)cc1O [A(65), 4-{4′-Amino-4-[2-(3-hydroxy-4-methoxy-phenyl)-ethenyl]-[2,5′]bithiazolyl-2′-ylamino}-benzenesulfonamide]	3.2% and 2.5% and 8.2%	190 to 193 °C (dec.)	150	−31% and −39%		Ki (CDK4/Cyclin D3 complex): 2100 nM
Nc1nc(Nc2ccc(S(N)(=O)=O)cc2)sc1-c1nc(/C=C/C=C/c2ccccc2)cs1 [A(66), 4-[4′-Amino-4-(4-phenyl-buta-1,3-dienyl)-[2,5′]bithiazolyl-2′-ylamino]-benzenesulfonamide]	3.6% and 6.6% and 9.1%	193 to 195 °C (dec.)	1100	−38% and −39%		
Nc1nc(Nc2ccc(S(N)(=O)=O)cc2)sc1-c1nc(C(=O)c2ccccc2)cs1 [A(67), 4-(4′-Amino-4-benzoyl-[2,5′]bithiazolyl-2′-ylamino)-benzenesulfonamide]		255 to 260 °C (dec.)	15	−29% and −33%		Ki (CDK4/Cyclin D3 complex): 670 nM; Ki ([2]; Table 2): 110 nM
CCOC(=O)c1nc(-c2sc(Nc3ccc(S(N)(=O)=O)cc3)nc2N)sc1Cc1ccccc1 [A(73), 4′-Amino-5-benzyl-2′-(4-sulfamoyl-phenylamino)-[2,5′]bithiazolyl-4-carboxylic acid ethyl ester]	14.4% and 7.3%			−23% and −30%	14.3	inhibition at 100 µM (CDK4/Cyclin D3 complex): < 0%; CDK2 % inhibition @ 100 (CDK2/Cyclin A complex): 36% @
